Literature values as cited in US20160151380A1, “THERAPIES FOR DISEASES CAUSED BY ARTHROPOD-BORNE PARASITES” (THE REGENTS OF THE UNIVERSITY OF CALIFORNIA, priority 2013, published 2016).

Biological target: T1, PKCepsilon (Homo sapiens, UniProt Q02156)
T1 sequence (Q02156 1-737): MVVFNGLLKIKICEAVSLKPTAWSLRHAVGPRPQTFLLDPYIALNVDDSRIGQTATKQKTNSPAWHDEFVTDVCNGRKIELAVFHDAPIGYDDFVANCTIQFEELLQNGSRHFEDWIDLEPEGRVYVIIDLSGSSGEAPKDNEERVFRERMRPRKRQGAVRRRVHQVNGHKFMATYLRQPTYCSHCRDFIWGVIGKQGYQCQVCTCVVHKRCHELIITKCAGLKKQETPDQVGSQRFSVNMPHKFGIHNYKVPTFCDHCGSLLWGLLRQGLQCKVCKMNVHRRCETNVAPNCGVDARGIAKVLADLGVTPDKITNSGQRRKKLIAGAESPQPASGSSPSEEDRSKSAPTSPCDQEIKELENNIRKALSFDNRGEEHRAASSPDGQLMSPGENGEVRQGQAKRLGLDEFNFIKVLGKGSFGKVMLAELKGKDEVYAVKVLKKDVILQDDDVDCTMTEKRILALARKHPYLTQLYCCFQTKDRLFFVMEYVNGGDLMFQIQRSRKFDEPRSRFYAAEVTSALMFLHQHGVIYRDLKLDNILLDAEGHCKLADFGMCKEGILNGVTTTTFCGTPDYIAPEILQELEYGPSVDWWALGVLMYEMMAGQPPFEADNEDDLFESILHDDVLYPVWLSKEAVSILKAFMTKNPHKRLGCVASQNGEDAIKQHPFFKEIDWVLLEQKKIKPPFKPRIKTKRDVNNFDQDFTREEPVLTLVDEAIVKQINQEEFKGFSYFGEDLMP
Conditions: PKCepsilon; cited from earlier work

Row | Molecule | IC50 | Kd
1 | O=C1NC(=O)c2c1c1c3ccccc3[nH]c1c1[nH]c3ccccc3c21 [Arcyriaflavin A] | 310 nM | 
2 | CC(C)(C)c1nc2c3cc[nH]c(=O)c3c3cc(F)ccc3c2[nH]1 [BCP9000906] | 500 nM | 
3 | COc1cccc(Nc2ncnn3ccc(CN4CC[C@@H](N)[C@H](O)C4)c23)c1 [BMS-690514] |  | < 400 nM
4 | O=C1NC(=O)C(c2c[nH]c3ccccc23)=C1c1c[nH]c2ccccc12 [Bisindolylmaleimide IV, 3,4-bis(1H-indol-3-yl)pyrrole-2,5-dione] | 190 nM | 
5 | CN(C)CCCn1cc(C2=C(c3c[nH]c4ccccc34)C(=O)NC2=O)c2ccccc21 [Bisindolylmaleimide I] | < 25 nM | 
6 | CCN1CCOCCn2cc(c3ccccc32)C2=C(C(=O)NC2=O)c2cn(c3ccccc23)CCOCC1 [CHEMBL103055] | 75 nM | 
7 | O=C(OC1CCCC1Cc1ccc(O)cc1)c1cc(O)c(C(=O)c2c(O)cccc2C(=O)O)c(O)c1 (stereo not drawn) [CHEMBL295806] | 120 nM | 
8 | N=C(N)SCCCn1c(-c2cc3ccccc3s2)c(C2=CC(=O)NC2=O)c2ccccc21 [CHEMBL350335] | 10 nM | 
9 | Cc1c(Nc2c(C#N)cncc2/C=C/CCN2CCC[C@@H](N)C2)ccc2[nH]ccc12 [CHEMBL606245] | 14 nM | 
10 | COc1ccc2c(c1)c(C1=C(c3c[nH]c4ccccc34)C(=O)NC1=O)cn2CCCN(C)C [Go6983, 3-[1-[3-(dimethylamino)propyl]-5-methoxyindol-3-yl]-4-(1H-indol-3-yl)pyrrole-2,5-dione] | > 150 nM | 
11 | Cc1cncc2cccc(S(=O)(=O)N3CCCN(C(=O)CN)C[C@@H]3C)c12 [H-1152; Glycyl] | 500 nM | 
12 | C#Cc1cccc(Nc2ncnc3cc4c(cc23)OCCOCCOCCO4)c1 [Icotinib] | > 1000 nM | 
13 | O=C1NC(=O)C(c2cn(CCCn3ccnc3)c3ccccc23)=C1Nc1ccccc1 [PKCb Inhibitor, 3-anilino-4-[1-(3-imidazol-1-ylpropyl)indol-3-yl]pyrrole-2,5-dione] | > 50 nM | 
14 | O=C1Nc2ccc3ncsc3c2/C1=C/c1cnc[nH]1 [PKR Inhibitor] | > 150 nM | 
15 | Nc1ncnc2c1c(-c1cnc3[nH]ccc3c1)nn2C1CCCC1 [PP121] | < 750 nM | 
16 | Cn1cc(C2=C(c3cn(CCCSC(=N)N)c4ccccc34)C(=O)NC2=O)c2ccccc21 [Ro-31-8220, methanesulfonic acid; 3-[3-[4-(1-methylindol-3-yl)-2,5-dioxopyrrol-3-yl]indol-1-yl]propyl carbamimidothioate] | 10 nM | 
17 | O=C1NC(=O)c2c1c1c3ccccc3n3c1c1c2c2ccccc2n1C1CCC3O1 [SB218078] | > 150 nM | 
18 | C[C@@H](OC(=O)c1ccc2c(c1)OCCO2)C(=O)Nc1ccc(Cl)cc1Cl [SureCN2579964] | < 750 nM | 
19 | CCc1cccc(OCCOCCN2CC(C)OC(C)C2)c1 (stereo not drawn) [SureCN2934634] | 1.6 nM | 
20 | CC1CCCN(CCOCCOc2ccc(Cl)cc2C(C)(C)C)C1 (stereo not drawn) [SureCN2934911] | 36 nM | 
21 | CCOC(=O)C(NC(=O)CCC(=O)OCC(=O)C1(O)CCC2C3CCC4=CC(=O)CCC4(C)C3C(O)CC21C)C(O)c1ccccc1 (stereo not drawn) [SureCN3774124] | 330 nM | 
22 | COc1c(Br)cc(Br)cc1/C=N\Nc1nc(NCc2ccccc2)nc(N2CCOCC2)n1 [SureCN5757856] | 140 nM | 
23 | Cdk1/2 Inhibitor III | > 50 nM | 

Same assay, conditions: cited from earlier work

Row | Molecule | Ki
24 | CC(C)[C@H]1C(=O)N[C@H](CO)Cc2c[nH]c3cccc(c23)N1C [Indolactam V] | 7.7 nM

Biological target: MAPK14 p38 (Homo sapiens, UniProt Q16539)
Sequence (Q16539 whole entry): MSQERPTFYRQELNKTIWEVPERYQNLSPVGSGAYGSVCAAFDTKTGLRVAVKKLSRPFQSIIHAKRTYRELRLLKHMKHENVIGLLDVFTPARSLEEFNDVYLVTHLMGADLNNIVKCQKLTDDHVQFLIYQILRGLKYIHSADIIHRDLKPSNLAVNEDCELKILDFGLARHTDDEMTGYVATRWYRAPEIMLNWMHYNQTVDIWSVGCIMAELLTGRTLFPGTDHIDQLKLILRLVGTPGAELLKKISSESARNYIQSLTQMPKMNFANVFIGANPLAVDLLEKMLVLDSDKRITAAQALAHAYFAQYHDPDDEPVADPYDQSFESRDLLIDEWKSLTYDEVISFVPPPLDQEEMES
Conditions: cited from earlier work

Row | Molecule | IC50 | Ki | Kd
25 | Cc1ccc(C(=O)Nc2cccc(C(F)(F)F)c2)cc1-c1ccc2nc(N)ncc2c1 [2ofv] | 6 nM |  | 
26 | Cc1cccc(-c2nn(C(=S)Nc3ccccc3)cc2-c2ccnc3ccccc23)n1 [A-83-01] | 100 nM |  | 
27 | COc1cc2ncnc(Nc3cccc(Cl)c3)c2cc1OC [AG1478] | 560 nM |  | 
28 | CC1=C2N=C(C=C3NC(=Cc4[nH]c(c(CCC(=O)O)c4CC(=O)O)Cc4[nH]c1c(CC(=O)O)c4CCC(=O)O)C(CCC(=O)O)C3(C)CC(=O)O)C(CCC(=O)O)C2(C)CC(=O)O (stereo not drawn) [BX517] | > 900 nM |  | 
29 | CCNc1nnc2ccc(-c3ocnc3-c3ccc(F)cc3)cn12 [CHEMBL213451] | 7.6 nM |  | 
30 | CC(C)c1nnc2ccc(-c3ocnc3-c3ccc(F)cc3Cl)cn12 [CHEMBL215652] | 2.5 nM |  | 
31 | Cc1ccc(C(=O)Nc2ccon2)cc1Nc1ncnc(NC2CCCC2)c1C#N [CHEMBL383172] |  | 1.6 nM | 
32 | Cc1ccc(-n2nc(C(C)(C)C)cc2NC(=O)Nc2cccc3ccccc23)cc1 [CHEMBL420047] |  |  | 1 nM
33 | Cc1ccc(NC(=O)c2cccc(N3CCCCC3)c2)cc1-c1ccc(C(=O)NCC2CC2)cc1 [CHEMBL1964275] |  |  | < 10 nM
34 | NC(N)=NC(=O)Cc1c(Cl)cccc1Cl [Kinome_3519] |  | 0.2 nM | 
35 | c1ccc(-c2[nH]ncc2-c2ccnc3ccccc23)nc1 [LY364947] | 740 nM |  | 
36 | CNC(=O)c1cc(Oc2ccc(NC(=O)Nc3ccc(Cl)c(C(F)(F)F)c3)c(F)c2)ccn1 [Regorafenib] | < 100 nM |  | 
37 | Cc1cc(F)ccc1-c1nc(NC(CO)CO)nc2c1ccc(=O)n2-c1c(F)cccc1F [SB681323] | < 100 nM |  | 
38 | Oc1cccc2cccnc12 [SPDD01923] | 0.11 nM |  | 
39 | CN(C)c1ccc(C(=N)c2ccc(N(C)C)cc2)cc1 [SureCN3936664] | 5 nM |  | 
40 | CCCCCCCCCCCCCC(=NO)c1cc(OC)ccc1O [SureCN4219451] | 1.8 nM |  | 
41 | CCC(C)C(C(=O)O)N1C(=O)C(=Cc2c(F)cccc2Cl)SC1=S (stereo not drawn) [SureCN4762364] | 3.2 nM |  | 
42 | O=C(COC(=O)C1COc2ccccc2O1)Nc1cc(C(F)(F)F)ccc1N1CCOCC1 (stereo not drawn) [SureCN4875304] | 540 nM |  | 
43 | COc1ccc2c(Oc3ccc(NC(=O)c4c(C)n(CC(C)(C)O)n(-c5ccccc5)c4=O)nc3)ccnc2c1 [SureCN5495613] | 9 nM |  | 
44 | Cc1ccc(NC(=O)c2cccc(N(C)C)c2)cc1NC(=O)c1ccc(O)cc1 [ZM336372] | 180 nM |  | 

Biological target: JNK1 (Homo sapiens, UniProt P45983)
Sequence (P45983 whole entry, species assumed): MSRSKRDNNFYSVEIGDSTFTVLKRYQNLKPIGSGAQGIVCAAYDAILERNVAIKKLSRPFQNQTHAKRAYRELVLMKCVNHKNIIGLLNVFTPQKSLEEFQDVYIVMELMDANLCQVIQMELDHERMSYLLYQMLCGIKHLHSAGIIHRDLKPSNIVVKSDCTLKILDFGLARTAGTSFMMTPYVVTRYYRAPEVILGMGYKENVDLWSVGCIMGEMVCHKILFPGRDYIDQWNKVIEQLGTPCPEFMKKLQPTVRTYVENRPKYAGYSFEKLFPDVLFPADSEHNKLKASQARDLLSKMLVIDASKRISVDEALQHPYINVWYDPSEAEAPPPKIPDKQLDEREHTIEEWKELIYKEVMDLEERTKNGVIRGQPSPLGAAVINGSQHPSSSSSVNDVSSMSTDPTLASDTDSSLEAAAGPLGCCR
Conditions: cited from earlier work

Row | Molecule | IC50 | Kd | Ki
45 | Cc1n[nH]c2ccc(-c3cncc(OC[C@@H](N)Cc4c[nH]c5ccccc45)c3)cc12 [A 443654] | > 900 nM |  | 
46 | N#CC(c1ccnc(NCCc2cccnc2)n1)c1nc2ccccc2s1 (stereo not drawn) [AS601245] | 150 nM |  | 
47 | CC1=C2N=C(C=C3NC(=Cc4[nH]c(c(CCC(=O)O)c4CC(=O)O)Cc4[nH]c1c(CC(=O)O)c4CCC(=O)O)C(CCC(=O)O)C3(C)CC(=O)O)C(CCC(=O)O)C2(C)CC(=O)O (stereo not drawn) [BX517] | > 900 nM |  | 
48 | CCS(=O)(=O)N1CC(CC#N)(n2cc(-c3ncnc4[nH]ccc34)cn2)C1 [Baricitinib] | > 1000 nM |  | 
49 | N#C/C(=C1/Nc2ccccc2S1)c1ccnc(NCCc2cccnc2)n1 [CHEMBL1788116] | 150 nM |  | 
50 | COCCOc1ccc2c(c1)ncn2-c1ccc2cccc(N3CCC(N)CC3)c2n1 [CP673451] | > 1000 nM |  | 
51 | COc1cc(N2CCOCC2)ccc1Nc1ncc(F)c(Nc2ccccc2NS(C)(=O)=O)n1 [CZC-25146] | < 600 nM |  | 
52 | CCS(=O)(=O)Nc1ccc2c(c1)/C(=C(/Nc1ccc(CN3CCCCC3)cc1)c1ccccc1)C(=O)N2 [Hesperadin] |  | < 10 nM | 
53 | NC(=O)Nc1sc(-c2ccc(F)cc2)cc1C(N)=O [IKK-2 Inhibitor IV] |  | < 1250 nM | 
54 | O=C(c1ccc(Nc2nccc(-c3cc4ccccc4s3)n2)cc1)N1CCC(N2CCCC2)CC1 [K00596a] | 100 nM |  | 
55 | CCCCCCOC(=O)[C@]1(O)C[C@@H]2O[C@@]1(C)n1c3ccccc3c3c4c(c5c6ccccc6n2c5c31)C(=O)NC4 [KT5720] | < 800 nM |  | 
56 | BrCBr [Kinome_3024] |  |  | 3 nM
57 | CCCC(=O)NC1=NC2C(N=CN2C2OC3OP(=O)(O)OC3C2OC(=O)CCC)C(=O)N1 (stereo not drawn) [Kinome_3027] |  |  | 1 nM
58 | CCCC(=O)NC1=NC2C(N=CN2C2OC3OP(=O)(O)OC3C2OC(=O)CCC)C(=O)N1 (stereo not drawn) [Kinome_3028] |  |  | 3 nM
59 | CCN(CC)C(=O)c1ccc(Nc2nc(OCC3CCCCC3)c3[nH]cnc3n2)cc1 [NU6140] | 500 nM |  | 
60 | CC(C)(C)n1nc(Cc2cccc3ccccc23)c2c(N)ncnc21 [PP1 Analog II; 1NM-PP1] | 140 nM |  | 
61 | O=C(O)c1ccc2c(c1)nc(Nc1cccc(Cl)c1)c1ccncc12 [Silmitasertib] | > 1000 nM |  | 
62 | O=C1NCc2c1c1c3ccccc3[nH]c1c1[nH]c3ccccc3c21 [Staurosporine aglycone] | < 100 nM |  | 
63 | CN1CC=C(c2c[nH]c3ccc(-c4cccs4)cc23)CC1 [SureCN10063060] |  |  | > 1000 nM

Biological target: JNK3 (Homo sapiens, UniProt P53779)
Sequence (P53779 whole entry, species assumed): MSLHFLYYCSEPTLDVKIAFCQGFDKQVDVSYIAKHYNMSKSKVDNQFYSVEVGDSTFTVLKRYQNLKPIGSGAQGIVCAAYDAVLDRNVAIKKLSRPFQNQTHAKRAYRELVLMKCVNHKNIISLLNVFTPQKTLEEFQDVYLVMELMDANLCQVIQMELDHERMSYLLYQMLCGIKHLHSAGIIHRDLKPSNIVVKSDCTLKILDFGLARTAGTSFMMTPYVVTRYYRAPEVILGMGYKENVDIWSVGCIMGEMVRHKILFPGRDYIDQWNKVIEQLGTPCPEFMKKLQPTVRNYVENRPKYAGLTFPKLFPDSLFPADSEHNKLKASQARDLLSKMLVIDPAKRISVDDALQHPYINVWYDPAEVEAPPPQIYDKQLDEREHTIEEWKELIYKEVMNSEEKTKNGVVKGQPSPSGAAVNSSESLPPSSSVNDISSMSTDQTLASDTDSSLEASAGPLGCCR
Conditions: cited from earlier work

Row | Molecule | IC50 | Kd | Ki
64 | Cc1n[nH]c2ccc(-c3cncc(OC[C@@H](N)Cc4c[nH]c5ccccc45)c3)cc12 [A 443654] | > 900 nM |  | 
65 | COc1cc(N2CCOCC2)ccc1Nc1ncc(F)c(Nc2ccccc2NS(C)(=O)=O)n1 [CZC-25146] | < 600 nM |  | 
66 | O=C(O)c1ccc(-c2c[nH]c3ncc(-c4ccccc4)cc23)cc1C1CCCC1 [GSK650394A] | > 600 nM |  | 
67 | Cn1c2ccccc2c2c3c(c4c5ccccc5n(CCC#N)c4c21)CNC3=O [Go6976, 5,6,7,13-Tetrahydro-13-methyl-5-oxo-12H-indolo[2,3-a]pyrrolo[3,4-c]carbazole-12-propa-nenitrile] | > 300 nM |  | 
68 | CCS(=O)(=O)Nc1ccc2c(c1)/C(=C(/Nc1ccc(CN3CCCCC3)cc1)c1ccccc1)C(=O)N2 [Hesperadin] |  | < 10 nM | 
69 | CCCC(=O)NC1=NC2C(N=CN2C2OC3OP(=O)(O)OC3C2OC(=O)CCC)C(=O)N1 (stereo not drawn) [Kinome_3027] |  |  | 18 nM
70 | O=C1c2ccccc2-c2nc3nnnn3nc21 [PDK1/Akt/Flt Inhibitor] | 500 nM |  | 
71 | CN(C)C[C@@H]1CCn2cc(c3ccccc32)C2=C(C(=O)NC2=O)c2cn(c3ccccc23)CCO1 [Ruboxistaurin] | > 900 nM |  | 
72 | CN1CCC(CNc2ccc3ncc(-c4cccc(OC(F)(F)F)c4)n3n2)CC1 [SGI-1776] | > 1000 nM |  | 
73 | O=C(O)c1ccc2c(c1)nc(Nc1cccc(Cl)c1)c1ccncc12 [Silmitasertib] | > 1000 nM |  | 
74 | O=C1NCc2c1c1c3ccccc3[nH]c1c1[nH]c3ccccc3c21 [Staurosporine aglycone] | < 100 nM |  | 
75 | COc1ccc(-c2cc3nccn3c(Nc3ncccc3C(N)=O)n2)cc1OC [Syk Inhibitor IV] | < 400 nM |  | 
